Data set [1] has as its system green peach aphid (Myzus persicae). Kind of data set: Myzus test (spray treatment). The data set is classed as in vivo. Particulars: foliar, read-out: activity (effect in %, aphids killed). The protocol:
Myzus Test (Spray Treatment)
• Solvents: 78.0 parts by weight of acetone • 1.5 parts by weight of dimethylformamide • Emulsifier: 0.5 part by weight of alkylaryl polyglycol ether
To produce a suitable preparation of active compound, 1 part by weight of active compound is mixed with the stated amounts of solvents and emulsifier, and the concentrate is diluted with emulsifier-containing water to the desired concentration.
Discs of leaves of Chinese cabbage (Brassica pekinensis) which are heavily infested by all stages of the green peach aphid (Myzus persicae) are sprayed with an active compound preparation of the desired concentration.
After the desired period of time, the effect in % is determined. 100% means that all aphids have been killed; 0% means that none of the aphids have been killed.

A short description of data set [2]: logP determination by HPLC (formic acid method). The data set is classed as physicochemical. The settings on record: read-out: logP (HCOOH). The protocol:
1) Description of the method for determining the logP values (formic acid method)
The logP values given in the table were determined in accordance with EEC Directive 79/831 Annex V.A8 by HPLC (High Performance Liquid Chromatography) on a reversed-phase column (C18). Temperature: 55° C.
Mobile phases for the determination in the acidic range (pH 3.4):
Mobile phase A: Acetonitrile+1 ml of formic acid/litre. Mobile phase B: water+0.9 ml of formic acid/litre.
Gradient: from 10% mobile phase A/90% mobile phase B to 95% mobile phase A/5% mobile phase B in 4.25 min.
Calibration was carried out using unbranched alkan-2-ones (having 3 to 16 carbon atoms) with known logP values (determination of the logP values by the retention times using linear interpolation between two successive alkanones). The lambda max values were determined in the maxima of the chromatographic signals using the UV spectra from 200 nm to 400 nm.

The mark [3] stands for this setting: application rate of 500 g/ha, sprayed Chinese cabbage leaf discs.
Setting [4] is: reversed-phase HPLC column (C18), pH 3.4, HPLC on reversed-phase column (C18), acidic range (pH 3.4), 55° C.
Where [5] appears, read: reversed-phase HPLC column (C18), pH 3.4, values printed in the text of the preparation examples, formic acid method.

Where two headings read alike, the source gives them in different places.

As to `Cc1nc(-c2cccnc2)sc1-c1nc(C(F)(F)F)co1` [compound 75], the pest or weed control at 500 g/ha in data set [1] (setting [3]) is not below 80%. In data set [2] (setting [4]), the chromatographic logP was 2.97.
Regarding `Cc1nc(-c2cccnc2)sc1-c1cccc(C(F)(F)F)n1` [compound 21], the pest or weed control at 500 g/ha in data set [1] (setting [3]) is not below 80%. Also, in data set [2] (setting [4]), the chromatographic logP is 3.01.
For `Cc1nc(-c2cccnc2)sc1-c1ccnc(C(F)(F)F)n1` [compound 109], in that order: not below 80% and 2.72.
The like results for `COC(OC)c1ccn(-c2sc(-c3cccnc3)nc2C)n1` [compound 19] were, in that order, not below 80% and 1.77.
Take `Cn1nc(-c2cccnc2)cc1-c1ccnc(-c2ncccn2)n1` [Preparation Example 12]: the pest or weed control at 500 g/ha in data set [1] (in Brassica rapa) was not below 80%. Besides, the chromatographic logP in data set [2] (setting [4]) and in data set [2] (setting [5]) was 0.65 throughout.
Take `CCNC(=O)n1ccc(-c2sc(-c3cccnc3)nc2C)n1` [compound 121]: the pest or weed control at 500 g/ha in data set [1] (setting [3]) was not below 80%. Also, the chromatographic logP in data set [2] (setting [4]) was 2.05.
The like results for `c1cnc(Cn2ccc(-c3cnc(-c4cccnc4)s3)n2)nc1` [compound 147] were, in that order, not below 80% and 1.24.
Regarding `Cc1nc(-c2cccnc2)sc1-c1ccn(C(=O)NC2CCCC2)n1` [compound 124], in data set [1] (setting [3]), the pest or weed control at 500 g/ha is not below 80%. The chromatographic logP in data set [2] (setting [4]) was found to be 3.09.
For `Cc1nc(-c2cccnc2)sc1-c1cncc(-c2cc(C)n(C)n2)n1` [compound 43], in that order: not below 80% and 1.86.
Regarding `Cc1nc(-c2cccnc2)sc1-c1ccn(-c2ncccc2[N+](=O)[O-])n1` [compound 77], in data set [1] (setting [3]), the pest or weed control at 500 g/ha was not below 80%. Moreover, the chromatographic logP in data set [2] (setting [4]) was 2.5.
The like results for `CCc1nnc(-n2ccc(-c3sc(-c4cccnc4)nc3C)n2)s1` [compound 84] were, in that order, not below 80% and 2.61.
In the case of `Cc1nc(-c2cccnc2)sc1-c1ccn(CC(F)(F)F)n1` [compound 23], in data set [1] (setting [3]), the pest or weed control at 500 g/ha was not below 80%. Besides, the chromatographic logP in data set [2] (setting [4]) amounted to 2.2.
For the compound `COc1nc(-n2ccc(-c3sc(-c4cccnc4)nc3C)n2)nc2c1CCC2` [compound 108], the pest or weed control at 500 g/ha in data set [1] (setting [3]) is not below 80%. For the same compound, in data set [2] (setting [4]), the chromatographic logP was 3.18.
For `Cc1nc(-c2cccnc2)sc1-c1ccn(-c2cccc(Cl)n2)n1` [compound 92], in that order: not below 80% and 3.84.
As to `Cc1nc(-c2cccnc2)sc1-c1cccc(C2=NOCCO2)n1` [Preparation Example 8, 3-[6-(4-Methyl-2-pyridin-3-ylthiazol-5-yl)pyridin-2-yl]-5,6-dihydro-[1,4,2]dioxazine], the pest or weed control at 500 g/ha in data set [1] (in Brassica rapa) was not below 80%. Further, the chromatographic logP in data set [2] (setting [4]) amounted to 1.82; in data set [2] (setting [5]), 1.81.
With `COC(=O)c1nc(-c2sc(-c3cccnc3)nc2C)ccc1Cl` [compound 112], the pest or weed control at 500 g/ha in data set [1] (setting [3]) was not below 80%. Also, in data set [2] (setting [4]), the chromatographic logP was 2.64.
For the compound `Cn1c(C(F)(F)F)nn(-c2cccc(-c3cnc(-c4cccnc4)s3)n2)c1=O` [compound 157], the pest or weed control at 500 g/ha in data set [1] (setting [3]) was not below 80%. Moreover, the chromatographic logP in data set [2] (setting [4]) was 2.35.
For `Cc1nc(-c2cccnc2)sc1-c1cccc(-n2nc(C(F)(F)F)n(C)c2=O)n1` [compound 156], in that order: not below 80% and 2.65.
For `Cc1nc(-c2cccnc2)sc1-c1ccn(-c2nc(Cl)cs2)n1` [compound 87], in that order: not below 80% and 3.47.
For the compound `c1cnc(-c2cccc(-c3cnc(-c4cncnc4)s3)n2)nc1` [compound 151], the pest or weed control at 500 g/ha in data set [1] (setting [3]) was not below 80%. For the same compound, the chromatographic logP in data set [2] (setting [4]) came out at 1.54.
For the compound `CSCCNC(=O)n1ccc(-c2sc(-c3cccnc3)nc2C)n1` [compound 129], in data set [1] (setting [3]), the pest or weed control at 500 g/ha is not below 80%. Further, the chromatographic logP in data set [2] (setting [4]) is 2.34.
Consider `CCOCCNC(=O)n1ccc(-c2sc(-c3cccnc3)nc2C)n1` [compound 115], for which the pest or weed control at 500 g/ha in data set [1] (setting [3]) was not below 80%. Moreover, the chromatographic logP in data set [2] (setting [4]) is 2.2.
For `Fc1cncc(-c2nnc(-c3cccc(-c4ncccn4)n3)s2)c1` [compound 165], in that order: not below 80% and 1.91.
For `Cc1nc(-c2cccnc2)sc1-c1ccn(-c2nnc(C3CC3)s2)n1` [compound 86], in that order: not below 80% and 2.72.
For `COC(=O)c1oc(-c2sc(-c3cccnc3)nc2C)nc1C` [compound 100], in that order: not below 80% and 2.55.
As to `Cc1nc(-c2cccnc2)sc1-c1ccn(-c2cnccc2F)n1` [compound 82], the pest or weed control at 500 g/ha in data set [1] (setting [3]) is not below 80%. In data set [2] (setting [4]), the chromatographic logP came out at 2.23.
In the case of `COC(=O)c1cccc(-c2sc(-c3cccnc3)nc2C)n1` [compound 95], the pest or weed control at 500 g/ha in data set [1] (setting [3]) was not below 80%. The chromatographic logP in data set [2] (setting [4]) was 2.03.
The like results for `Cn1nc(-c2cccnc2)cc1-c1cc[nH]n1` [compound 170] were, in that order, not below 80% and 0.42.
For `Cc1nc(-c2cccnc2)sc1-c1ccn(C(=S)NC(C)c2ccccc2)n1` (stereo not drawn) [compound 136], in that order: not below 80% and 4.41.
The like results for `Cc1nc(-c2cccnc2)sc1C1=NCC(c2ccccn2)O1` (stereo not drawn) [compound 16] were, in that order, not below 80% and 1.72.
With `Cc1nc(-c2cccnc2)sc1-n1ccc(-c2ccccc2F)n1` [compound 36], the pest or weed control at 500 g/ha in data set [1] (setting [3]) was not below 80%. Further, the chromatographic logP in data set [2] (setting [4]) was 3.33.
Take `Cc1nc(-c2cccnc2)sc1-c1ccn(C(=O)NC(C)COC(C)C)n1` (stereo not drawn) [compound 117]: the pest or weed control at 500 g/ha in data set [1] (setting [3]) was not below 80%. Besides, the chromatographic logP in data set [2] (setting [4]) worked out at 3.18.
The like results for `Cc1nc(-c2cccnc2)sc1-c1cccc(Cl)n1` [compound 31] were, in that order, not below 80% and 2.66.
The like results for `c1cnc(-n2ccc(-c3cnc(-c4cccnc4)s3)n2)nc1` [compound 89] were, in that order, not below 80% and 1.48.
For `c1cnc(-c2cccc(-c3nnc(-c4cncnc4)s3)n2)nc1` [compound 164], in that order: not below 80% and 1.39.
`COC(=O)/C(=N\O)c1nccc(-c2sc(-c3cccnc3)nc2C)n1` [compound 53]: in data set [1] (setting [3]), the pest or weed control at 500 g/ha was not below 80%. Further, the chromatographic logP in data set [2] (setting [4]) stood at 1.58.
On to `Cc1nc(-c2cccnc2)sc1-c1ccn(C(=S)NCC(C)C)n1` [compound 143], for which the pest or weed control at 500 g/ha in data set [1] (setting [3]) is not below 80%. In addition, the chromatographic logP in data set [2] (setting [4]) was 4.28.
For `Cc1cccc(-c2nccc(-c3sc(-c4cccnc4)nc3C)n2)n1` [compound 54], in that order: not below 80% and 1.49.
The like results for `Cc1nc(-c2cccnc2)sc1-c1cccnc1` [compound 18] were, in that order, not below 80% and 1.1.
On to `Cc1nc(-c2cccnc2)sc1-c1cccc(C(F)(F)F)c1` [compound 17], for which the pest or weed control at 500 g/ha in data set [1] (setting [3]) was not below 80%. Further, in data set [2] (setting [4]), the chromatographic logP is 3.55.
As to `CN(C)/C=C/C(=O)c1cc(-c2cccnc2)nn1C`, the chromatographic logP in data set [2] (setting [5]) was found to be 0.6.
Consider `c1cncc(-c2ncc(-c3cccc(-c4nccnn4)n3)s2)c1` [compound 180], for which the chromatographic logP in data set [2] (setting [4]) amounted to 1.43.
As to `COC(=O)c1cc(-c2cccnc2)nn1C` (single isomer, unassigned) [drawing 76 isomer 1], in data set [2] (pH 3.4, values given in the preparation examples, formic acid method), the chromatographic logP was 0.84.
As for `Cc1nc(-c2cccnc2)sc1-c1nc(C(=O)N2CCCCC2)cs1` [compound 236], the chromatographic logP in data set [2] (setting [4]) was 2.38.
`CC(=O)c1nnc(-c2cccnc2)s1` [1-(5-Pyridin-3-yl-[1,3,4]thiadiazol-2-yl)ethanone]: the chromatographic logP in data set [2] (setting [5]) is 1.16.
In the case of `Cc1nc(-c2cccnc2)sc1-c1nc(C(=O)NC(C)(C)C)cs1` [compound 234], the chromatographic logP in data set [2] (setting [4]) worked out at 2.93.
Still for that read-out and setting: the value for `O=C1CCCCN1c1cccc(-c2cnc(-c3cccnc3)s2)n1` [compound 204] was 1.87; that for `Cc1cc(C)nc(-c2nc(-c3sc(-c4cccnc4)nc3C)cs2)n1` [compound 197] was 2.58.
Take `Cc1nc(-c2cncc(F)c2)sc1-c1ccnc(-c2ncccn2)n1` [compound 186]: the chromatographic logP in data set [2] (setting [4]) is 1.63.
As for `Cc1ccn(-c2cccc(-c3cnc(-c4cccnc4)s3)n2)n1` [compound 189], the chromatographic logP in data set [2] (setting [4]) came out at 2.85.
For `COC(=O)c1cccc(-c2cnc(-c3cccnc3)s2)n1` [compound 244], in data set [2] (setting [4]), the chromatographic logP was found to be 1.77.

The values are drawn from patent publication US9451775B2, “Heterocyclic compounds as pesticides” (Bayer Intellectual Property GmbH, priority 2008, dated 2016).
